According to patent US20200179415A1, “HIGHLY ACTIVE DRUG COMBINATION FOR TREATMENT OF HEPATITIS C VIRUS” (Atea Pharmaceuticals, Inc., priority 2018, published 2020):
Structures can show the parent of a compound that is named as a salt.

Columns and labels:
HCV GT1 = details: non-cirrhotic patients, 600 mg QD, seven days; cited from earlier work
HCV GT1a replicon = experiment: microbe, parasite or virus in culture; type: cell-based; details: Hepatitis C virus, Huh-7, 72 h, stable replicon in Huh7 cells, 3 days, read-out: Individual EC50
Method: (§1) Huh7 cells were maintained in DMEM supplemented with 10% FBS, 1% NEAA, 1% L-Glutamine and 1% Penicillin-Streptomycin. The stable HCV GT1a and 1b replicon cells were generated by transfection of Huh7 cells with in vitro transcribed HCV replicon RNA transcripts from replicon DNA constructs and were selected with 250 μg/ml of G418. The GT1b/3a NS5B chimeric replicons were constructed with the GT1b replicon as a backbone. GT1b/3a NS5B replicon RNAs were in vitro transcribed using the replicon plasmid DNAs and used to transiently transfect Huh7 cells by electroporation.
(§2) The final concentration of DMSO in the cell culture medium was 0.5%. Compounds were individually tested for their inhibitory activity in stably-transfected GT1a and GT1b replicons and in transiently-transfected GT1b/3a NS5B chimeric replicons in duplicate at 9 concentrations with a series of 4-fold dilutions starting at 10,000 nM. Replicon cells were seeded (8,000 cells/well for GT1a and 1b; 10,000 cells/well for GT1b/3a NS5B) in 96-well plates containing serially diluted compounds and cultured at 37° C. and 5% CO2 for 3 days. CellTiter-Fluor was used to detect the fluorescence signal and the raw data (RFU) was used for calculating cell viability using the equation below: […]
(§3) where CPD is a signal from a well containing a test compound, ZPE is the average of signals from DMSO control wells and HPE is the average of signals from medium control wells.
(§4) The data were analyzed using CompuSyn software (ComboSyn, Inc., Paramus, N.J.) to obtain the concentrations of the individual compounds required to achieve 50% cytotoxicity (CC50) and 50% (EC50) and 90% (EC90) antiviral efficacy. […]
(§5) In Example 6, Huh7 cells were transiently transfected with replicon RNA by electroporation and seeded at a density of 10,000 cells/well in 96-well plates. HCV GT1a and GT1b replicons stable cells were seeded at a density of 8,000 cells/well in 96-well plates. […]

[1] = test system: GT1b_3a-NS5B chimeric HCV replicon; experiment: microbe, parasite or virus in culture; type: cell-based; details: Hepatitis C virus, Huh-7, 72 h, read-out: Individual EC50
Method: as §1, §2, §3, §4, §5

HCV GT1b replicon = experiment: microbe, parasite or virus in culture; type: cell-based; details: Hepatitis C virus, Huh-7, 72 h, stable replicon in Huh7 cells, 3 days, read-out: Individual EC50
Method: as §1, §2, §3, §4, §5

HCV GT1 or HCV GT3 = details: CPA cirrhosis, QD for seven days; cited from earlier work
HCV GT3 = details: non-cirrhotic patients, 600 mg QD, seven days; cited from earlier work
[2] = Stability of Compound 2-A in stability chambers; type: physicochemical
Method: The stability of Compound 2-A was measured under three different conditions: 1) open container; 2) PE/ALU bag where the PE bag is closed with clips and the ALU bag is sealed by thermos-sealing; and 3) PE/ALU bag with desiccant where the PE bag is closed with plastic clip, the ALU bag is sealed by the thermos-sealing, and 10 g of silica gel is placed between the bags. The open container conditions were conducted with two different batches of Compound 2-A. The results of the stability studies are shown in Table 5A, Table 5B, Table 6, and Table 7.

[3] = Hygroscopicity in climatic cabinet; type: physicochemical
Method: Compound 2-A was characterized by ^1HNMR, ^13CNMR, FI-IR, and mass spectrum in addition to XRPD (FIG. 1A) and differential scanning calorimetry (DSC) (FIG. 1B). The hygroscopicity was measured by placing a sample in a climatic cabinet set at 25±1° C./80±2% RH for 24 hours. The water content was increased from 3.3% to 9.4%.

[4] = 25° C./60% RH and 40° C./75% RH
[5] = Batch No. 1, open container, 25° C./60% RH, 7 days
[6] = Batch No. 1, open container, 25° C./60% RH, 14 days
[7] = Batch No. 1, open container, 25° C./60% RH, 28 days
[8] = Batch No. 1, open container, 30° C./65% RH, 7 days
[9] = Batch No. 1, open container, 30° C./65% RH, 14 days
[10] = Batch No. 1, open container, 30° C./65% RH, 28 days
[11] = Batch No. 1, open container, 40° C./75% RH, 7 days
[12] = Batch No. 1, open container, 40° C./75% RH, 14 days
[13] = Batch No. 1, open container, 40° C./75% RH, 28 days
[14] = Batch No. 1, open container, Initial
[15] = Batch No. 2, PE/ALU bag, 25° C./60% RH, 7 days
[16] = Batch No. 2, PE/ALU bag, 25° C./60% RH, 16 days
[17] = Batch No. 2, PE/ALU bag, 40° C./75% RH, 7 days
[18] = Batch No. 2, PE/ALU bag, 40° C./75% RH, 16 days
[19] = Batch No. 2, PE/ALU bag, Initial
[20] = Batch No. 2, PE/ALU with desiccant, 25° C./60% RH, 7 days
[21] = Batch No. 2, PE/ALU with desiccant, 25° C./60% RH, 16 days
[22] = Batch No. 2, PE/ALU with desiccant, 40° C./75% RH, 7 days
[23] = Batch No. 2, PE/ALU with desiccant, 40° C./75% RH, 16 days
[24] = Batch No. 2, PE/ALU with desiccant, Initial
[25] = Batch No. 2, open container, 25° C./60% RH, 7 days
[26] = Batch No. 2, open container, 25° C./60% RH, 16 days
[27] = Batch No. 2, open container, 30° C./65% RH, 7 days
[28] = Batch No. 2, open container, 30° C./65% RH, 16 days
[29] = Batch No. 2, open container, 40° C./75% RH, 7 days
[30] = Batch No. 2, open container, 40° C./75% RH, 16 days
[31] = Batch No. 2, open container, Initial

Compound: CNc1nc(N)nc2c1ncn2[C@@H]1O[C@H](CO[P@@](=O)(N[C@@H](C)C(=O)OC(C)C)Oc2ccccc2)[C@@H](O)[C@@]1(C)F [Compound 1-A, hemi-sulfate salt of isopropyl((S)-(((2R,3R,4R,5R)-5-(2-amino-6-(methylamino)-9H-purin-9-yl)-4-fluoro-3-hydroxy-4-methyltetrahydrofuran-2-yl)methoxy)(phenoxy)phosphoryl)-L-alaninate]
- mean maximum HCV RNA reduction (HCV GT1): 4.4 log10 IU/mL
- EC50 (HCV GT1a replicon): 2.83 nM
- EC50 [1]: 1.68 nM
- EC50 (HCV GT1b replicon): 2.69 nM
- mean maximum HCV RNA reduction (HCV GT1 or HCV GT3): 4.4 log10 IU/mL
- mean maximum HCV RNA reduction (HCV GT3): 4.6 log10 IU/mL

Compound: COC(=O)N[C@H](C(=O)N1CCC[C@H]1c1nc(-c2ccc(-c3ccc(-c4c[nH]c([C@@H]5CCCN5C(=O)[C@@H](NC(=O)OC)C(C)C)n4)c4c3OCO4)cc2)c[nH]1)C(C)C [Compound 2, methyl N-[(2S)-1-[(2S)-2-[5-[4-[7-[2-[(2S)-1-[(2 S)-2-(methoxycarbonylamino)-3-methylbutanoyl]pyrrolidin-2-yl]-1H-imidazol-5-yl]-1,3-benzodioxol-4-yl]phenyl]-1H-imidazol-2-yl]pyrrolidin-1-yl]-3-methyl-1-oxobutan-2-yl]carbamate]
- EC50 (HCV GT1a replicon): 0.03 nM
- EC50 [1]: 0.0029 nM
- EC50 (HCV GT1b replicon): 0.014 nM

Compound: COC(=O)N[C@H](C(=O)N1CCC[C@H]1c1nc(-c2ccc(-c3ccc(-c4c[nH]c([C@@H]5CCCN5C(=O)[C@@H](NC(=O)OC)C(C)C)n4)c4c3OCO4)cc2)c[nH]1)C(C)C [Compound 2-A]
- purity change [2, 4]: not changed
- water content change [2, 4]: slowly increased
- Appearance [2, 5]: Pale-yellow solid
- Purity (HPLC) [2, 5]: 98.45%
- Water (KF) [2, 5]: 6.14%
- XRPD [2, 5]: Consistent
- Appearance [2, 6]: Pale-yellow solid
- Purity (HPLC) [2, 6]: 98.61%
- Water (KF) [2, 6]: 6.28%
- Appearance [2, 7]: Pale-yellow solid
- Purity (HPLC) [2, 7]: 98.58%
- Water (KF) [2, 7]: 5.95%
- Appearance [2, 8]: Pale-yellow solid
- Purity (HPLC) [2, 8]: 98.40%
- Water (KF) [2, 8]: 6.73%
- XRPD [2, 8]: Consistent
- Appearance [2, 9]: Pale-yellow solid
- Purity (HPLC) [2, 9]: 98.47%
- Water (KF) [2, 9]: 6.80%
- Appearance [2, 10]: Pale-yellow solid
- Purity (HPLC) [2, 10]: 98.59%
- Water (KF) [2, 10]: 6.49%
- Appearance [2, 11]: Pale-yellow solid
- Purity (HPLC) [2, 11]: 98.45%
- Water (KF) [2, 11]: 7.13%
- XRPD [2, 11]: Consistent
- Appearance [2, 12]: Pale-yellow solid
- Purity (HPLC) [2, 12]: 98.51%
- Water (KF) [2, 12]: 7.67%
- Appearance [2, 13]: Pale-yellow solid
- Purity (HPLC) [2, 13]: 98.53%
- Water (KF) [2, 13]: 6.96%
- Appearance [2, 14]: Pale-yellow solid
- Purity (HPLC) [2, 14]: 98.39%
- Water (KF) [2, 14]: 3.11%
- XRPD [2, 14]: Crystalline
- Appearance [2, 15]: White powder
- Purity (HPLC) [2, 15]: 99.36%
- Water (KF) [2, 15]: 5.18%
- Appearance [2, 16]: White powder
- Purity (HPLC) [2, 16]: 99.41%
- Water (KF) [2, 16]: 5.56%
- Appearance [2, 17]: White powder
- Purity (HPLC) [2, 17]: 99.37%
- Water (KF) [2, 17]: 5.42%
- Appearance [2, 18]: White powder
- Purity (HPLC) [2, 18]: 99.42%
- Water (KF) [2, 18]: 5.91%
- Appearance [2, 19]: White powder
- Purity (HPLC) [2, 19]: 99.39%
- Water (KF) [2, 19]: 4.48%
- Appearance [2, 20]: White powder
- Purity (HPLC) [2, 20]: 99.38%
- Water (KF) [2, 20]: 5.46%
- Appearance [2, 21]: White powder
- Purity (HPLC) [2, 21]: 99.41%
- Water (KF) [2, 21]: 5.83%
- Appearance [2, 22]: White powder
- Purity (HPLC) [2, 22]: 99.37%
- Water (KF) [2, 22]: 5.51%
- Appearance [2, 23]: White powder
- Purity (HPLC) [2, 23]: 99.42%
- Water (KF) [2, 23]: 6.90%
- Appearance [2, 24]: White powder
- Purity (HPLC) [2, 24]: 99.39%
- Water (KF) [2, 24]: 4.48%
- Appearance [2, 25]: White powder
- Purity (HPLC) [2, 25]: 99.37%
- Water (KF) [2, 25]: 6.01%
- Appearance [2, 26]: White powder
- Purity (HPLC) [2, 26]: 99.41%
- Water (KF) [2, 26]: 7.69%
- Appearance [2, 27]: White powder
- Purity (HPLC) [2, 27]: 99.38%
- Water (KF) [2, 27]: 7.50%
- Appearance [2, 28]: White powder
- Purity (HPLC) [2, 28]: 99.41%
- Water (KF) [2, 28]: 6.98%
- Appearance [2, 29]: White powder
- Purity (HPLC) [2, 29]: 99.38%
- Water (KF) [2, 29]: 7.96%
- Appearance [2, 30]: White powder
- Purity (HPLC) [2, 30]: 99.42%
- Water (KF) [2, 30]: 7.03%
- Appearance [2, 31]: White powder
- Purity (HPLC) [2, 31]: 99.39%
- Water (KF) [2, 31]: 4.48%
- water content ([3]; after 24 hours at 25±1° C./80±2% RH): 9.4%
- water content ([3]; before storage): 3.3%
